Reference: patent US20110173718A1, “HERBICIDE TOLERANT PLANTS” (SYNGENTA CROP PROTECTION, INC., priority 2008, published 2011)

What was measured:
[1] = molecular target: T1, Chlamydomonas HST (Chlamydomonas reinhardtii, UniProt A1JHN0); assay: HST assay (TLC, MFBQ formed), recombinant Chlamydomonas HST in E. coli membranes; assay type: biochemical; settings: 25 ppm, TLC, estimated amount of MFBQ formed, relative to controls; for inhibition at 25 ppm: read-out: Chlamydomonas. HST % I at 25 ppm
T1 construct: GST (N); made in house; host or cells: E. coli (BL21A1 / BL21DE3), membrane fraction
T1 sequence (A1JHN0 51-370): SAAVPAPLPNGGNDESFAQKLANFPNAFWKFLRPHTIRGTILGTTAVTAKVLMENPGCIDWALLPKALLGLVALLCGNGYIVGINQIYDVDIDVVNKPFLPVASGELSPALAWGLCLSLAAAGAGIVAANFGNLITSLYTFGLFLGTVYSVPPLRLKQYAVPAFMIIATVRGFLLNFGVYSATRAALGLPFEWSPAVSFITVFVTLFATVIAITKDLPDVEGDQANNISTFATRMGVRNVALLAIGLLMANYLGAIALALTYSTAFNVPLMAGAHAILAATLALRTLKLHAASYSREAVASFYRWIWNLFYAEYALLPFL
Method: Alternatively, Arabidopsis and Chlamydomonas mature HST coding sequences are cloned as GST N-terminal fusion enzymes and expressed in E. coli.
E. coli. BL21A1 cells expressing mature Arabidopsis or Chlamydonionas HST as a GST N-terminal fusion proteins are grown, harvested, broken and membrane fractions expressing HST produced.
For example, 1 ng of recombinant DNA is used to transform BL21DE3 cells to obtain a plateful of individual colonies. One of these colonies is picked and used to inoculate an overnight culture of 100 ml of Luria Broth (LB) supplemented with 50 ug/ml of kanamycin at final concentration, grown at 37° C. with shaking at 220 rpm. Next morning, 10 mls of the overnight culture is used to inoculate 11 of fresh sterile LB supplemented with 50 ug/ml of kanamycin at final concentration, grown at 37° C. with shaking at 220 rpm until the OD reached 0.6 at 600 nm, induced with the addition of 0.1 mM IPTG and left to induce at 15° C. overnight. The cells are harvested by centrifugation at 4600 rpm for 10 min at 4° C. and the pellet stored at −80° C. […] E. coli cell pellet is then resuspended in 25 ml of 50 mM Tris, pH 7.5 supplemented with Roche EDTA-free protease inhibitor tablet (one tablet in 200 mls of buffer). 10 ml of cells are lysed by sonication on ice. The resultant lysed cells are centrifuged at 3000 g for 10 min to pellet the cell nuclei/debris etc. 10 mls of supernatant is aspirated and centrifuged at 150,000 g for 60 min at 4° C. The pellet containing the membranes is resuspended in 2 ml of the above buffer. These samples are stored as 100 ul aliquots at −80° C., after being diluted with addition of glycerol to 50% v/v.
(§1) Prenyltransferase (HST) activities are measured by determining the prenylation rates of [U—^14C]homogentisate using farnesyl diphosphate (FDP) as prenyl donor. ^14C homogentisate is prepared from ^14C tyrosine using L amino acid oxidase and HPPD. For inhibitor testing, compounds are dissolved in dimethylsulfoxide (DMSO). DMSO added at up to 2% v/v has no effect on assays. Control assays contain DMSO at the same concentration as in inhibitor containing assays.
The recombinant Chlamydomonas HST expressed in E. coli membranes is assayed in standard reaction mixtures with 200 μM FDP and 100 μM ^14C-homogentisate (40 dpm/pmol) in 50 mM Tricine-NaOH pH 8.5, 20 mM MgCl2. Assays are started with the addition of enzyme and run for ˜20 min at 28° C.
Recombinant Arabidopsis and Rice HSTs are expressed in insect cells. Assays are run as for Chlamydomonas HST except that assay temperature is 27° C. Assays are stopped with 300 ul of solvent mix (1:2, Chloroform:Methanol) and 100 ul of 0.5% NaCl, agitated/mixed and spun at 13,000 rpm in a benchtop eppendorf centrifuge for 5 minutes. 80 ul of the lower phase extract is loaded onto a TLC plate (silica Gel 60, 20 cm×20 cm) FLA3000 system and run for 35 minutes in dichloromethane. The radioactivity is quantified using a Fuji Phosphoimager and band intensity integrated as quantitative measure of product amount. The bands corresponding to oxidised and reduced 2-methyl-6-farnesyl-1,4-benzoquinol (MFBQ) are identified and the total of the two (oxidised and reduced) band intensities is calculated in order to estimate the total amount of MFBQ product formation. Specific activities of 8 pmol MFBQ min^−1 mg^−1 protein (23 pmol) and 7 pmol MFBQ min^−1 mg^−1 protein (14 pmol) are, for example, estimated for the GST-fusion truncated Arabidopsis HST gene (SEQ ID # 3) expressed in membranes from insect cells 4 days and 5 days after transfection respectively. Similar results are noted from past literature on E. coli expressed Arabidopsis HST. Activity from the insect cell expressed GST-fusion truncated rice HST (SEQ ID# 4) is similar. Expression of the non-truncated HST coding sequences as GST fusions also gives HST activity. […]

[2] = test system: HST in spinach chloroplast extract; assay: HST assay (TLC, MFBQ formed), spinach chloroplast extract; assay type: biochemical; settings: 25 ppm; TLC, estimated amount of MFBQ formed, relative to controls
Method: HST enzyme preparations for assay are also prepared directly from fresh plant material. For example HST enzyme preparations are from spinach. In the first step intact spinach chloroplasts are prepared from two lots of 500 g of fresh baby spinach leaves (e.g from the salad section of the local supermarket). Prepacked spinach is usually already washed, but if buying loose leaves these must be rinsed in water before proceeding. Stalks, large leaves and mid-ribs are removed. Each 500 g lot of leaves is added to 1.5 l of ‘Grinding medium’ in a 2 L plastic beaker. Grinding medium is cold (4° C.) 50 mM Tricine/NaOH buffer at pH 7.1 containing 330 mM glucose, 2 mM sodium isoascorbate, 5 mM MgCl2 and 0.1% bovine serum albumen The beaker, kept at 4° C., is placed under a Polytron 6000 blender, fitted with a 1.5″cutting probe and the mixture blended in short bursts of 5-8 sec up to 8-10K rpm until all the leaves are macerated. The homogenate is filtered into a 5 L beaker (embedded in an ice bucket) through four layers of muslin, and two layers of 50μ mesh nylon cloth. The filtrate is transferred to 250 ml buckets of a Beckman GS-6 centrifuge and spun at […] (3020 rpm) for 2 min at 4° C. The supernatant is drained away and discarded to leave a sediment of chloroplasts. Chloroplasts are resuspended in a few ml of cold resuspension medium by gentle swirling and gentle use of a quill brush soaked in resuspension medium. Resuspension medium is 50 mM Hepes/KOH pH 7.8 containing 330 mM sorbitol, 2 mM EDTA, 5 mM KH2PO4, 2 mM MgCl2 and 0.1% bovine serum albumen at 4° C. The chloroplasts are resuspended in 5-10 ml of resuspension buffer, recentrifuged down and resuspended again in order to wash them. The chloroplasts are then once again centrifuged down and then broken by resuspension in about 5 ml of 50 mM Tricine-NaOH pH 7.8 to a protein concentration of about 40 mg/ml. The solution is stored frozen at −80° C. in aliquots. This resuspension is defrosted and used directly in HST activity assays. Alternatively, chloroplasts are prepared resuspended in 50 mM Tris/HCl buffer at pH 7.8 containing 330 mM sorbitol (alternative resuspension buffer) and layered on top of a percol gradient (comprising the same buffer containing 45% percol), spun down, the intact chloroplast fraction taken and washed 2 or 3 times in the alternative resuspension buffer and then spun down again, resuspended in breaking buffer (without sorbitol), flash frozen and stored in aliquots at −80° C.
as §1
Assays using spinach chloroplast extracts (100 μl final volume) contain up to 2 mg of chloroplast protein, 50 mM Tricine-NaOH pH 8.5, 50 mM MgCl2, 200 μM farnesyl diphosphate (FDP) and 26 μM ^14C-homogentisate (167 dpm/pmol). Assays are run for about an hour at 28° C. […] Lipophilic reactions products are extracted and analyzed essentially as described in the literature.
Using the above assays percentage inhibition of the amount of MFBQ formed at a range of doses of inhibitors relative to the control amount obtained with no inhibitor present is reported (Table 1). The better inhibitors give greater percentage inhibition at lower doses.

Row | Structure (SMILES) | inhibition at 25 ppm [1] [%] | Spinach chloroplast extract % I at 25 ppm [2] [%] | Chlamydomonas. HST % I at 25 ppm [1] [%]
1 | COc1nc(C)nc(NC(=O)NS(=O)(=O)c2ccccc2Cl)n1 [Chlorsulfuron, reference compound] | 0 | 0 | 
2 | CCN1c2nccnc2C(O)=C(c2c(Cl)cccc2C(F)(F)F)S1(=O)=O [Compound 3.1] |  | 20 | 20
3 | Oc1c(Br)c(F)nc(F)c1Br [Compound 1.4] | 65 | 75 | 
4 | O=c1c(-c2c(Cl)cncc2Cl)c(O)c2nccnc2n1CC(F)F [Compound 5.1] |  | 10 | 20
5 | O=S1(=O)C(c2c(Cl)cccc2C(F)(F)F)=C(O)c2nccnc2N1CC(F)F [Compound 3.3] |  | 35 | 20
6 | Oc1c(Cl)c(Cl)nc(Cl)c1Cl [Compound 1.2] | 70 | 80 | 
7 | O=c1[nH]c2nccnc2c(O)c1-c1ccccc1OC(F)(F)F [Compound 2.12] |  | 0 | 0
8 | CN1c2nccnc2C(O)=C(c2ccc(Cl)cc2Cl)S1(=O)=O [Compound 3.2] |  | 15 | 0
9 | CCc1cc(CC)c(-c2c(O)c3nccnc3[nH]c2=O)c(CC)c1 [Compound 2.10] |  | 0 | 50
10 | O=S1(=O)C(c2c(Cl)ccc(Cl)c2Cl)=C(O)c2nccnc2N1CC(F)F [Compound 3.4] |  | 40 | 50
11 | Oc1c(F)c(F)nc(F)c1Br [Compound 1.3] | 55 | 65 | 
